Reference: BindingDB's records for doi:10.7270/Q2154FH8 (Burnham Center For Chemical Genomics, 2010)
pIC50: −log10 of the molar value.

The molecules below were run against Intestinal-type alkaline phosphatase (Homo sapiens, UniProt P09923) (assay: inhibition of human intestinal alkaline phosphatase – biochemical, luminescent, uHTS hits, set 2, dose response (AID 488793)).
Sequence of Intestinal-type alkaline phosphatase (P09923 whole entry): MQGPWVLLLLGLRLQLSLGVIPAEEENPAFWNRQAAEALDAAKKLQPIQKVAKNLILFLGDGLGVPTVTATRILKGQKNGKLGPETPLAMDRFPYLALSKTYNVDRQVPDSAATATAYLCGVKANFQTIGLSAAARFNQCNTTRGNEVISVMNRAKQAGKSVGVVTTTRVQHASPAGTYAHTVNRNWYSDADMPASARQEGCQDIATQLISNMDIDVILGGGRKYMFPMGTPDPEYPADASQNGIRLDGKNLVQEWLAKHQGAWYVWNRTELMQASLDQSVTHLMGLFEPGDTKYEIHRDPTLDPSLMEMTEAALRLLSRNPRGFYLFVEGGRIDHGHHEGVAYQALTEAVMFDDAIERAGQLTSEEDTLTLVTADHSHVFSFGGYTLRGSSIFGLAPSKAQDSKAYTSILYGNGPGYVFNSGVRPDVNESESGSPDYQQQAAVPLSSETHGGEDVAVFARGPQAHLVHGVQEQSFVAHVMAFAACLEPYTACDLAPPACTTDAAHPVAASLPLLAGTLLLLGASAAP

Going from `CC(N=Nc1ccccc1[N+](=O)[O-])c1ccc([N+](=O)[O-])cc1` (centres undefined) to `C=c1[nH]n(Cc2ccccc2)c(=O)c1=Cc1ccc(N(C)C)cc1` [(4Z)-4-[[4-(dimethylamino)phenyl]methylidene]-5-methyl-2-(phenylmethyl)-3-pyrazolone], the pIC50 rises from 4.11 to 4.40 (0.29 log units).

Compared with `CCOC1=CC(=Cc2c(C)[nH]oc2=O)C=C(Br)C1=O` [4-[(Z)-(3-bromo-5-ethoxy-4-oxo-1-cyclohexa-2,5-dienylidene)methyl]-3-methyl-2H-isoxazol-5-one], `O=C(O)[C@H]1O[C@@H](Oc2c(-c3ccc(O)c(O)c3)oc3cc(O)cc(=O)c-3c2O)[C@H](O)[C@@H](O)[C@@H]1O` [quercetin glucuronide] is 1.60 log units higher in pIC50: 4.45 for the first, 6.05 for the second. The second is the more potent here.
